Read-outs that look alike come from different tables or passages of the source.
Key:
[1] = Food-effect two-period crossover trial: plasma pharmacokinetics after a single 200 mg oral dose of Ginsenoside CK Tablets; format: in vivo, human; conditions: for Tmax: median (range)
Procedure: The food-effect trial was an open-label, randomized, two-period, two-treatment crossover trial, carried out from 15 January to 31 March 2015. Subjects (n = 24) were admitted to the clinical facility (Center of Clinical Pharmacology, the Third Xiangya Hospital, Central South University, Changsha, China) and randomized to receive a single 200 mg oral dose of Ginsenoside CK Tablets (4 × 50 mg tablets) either after a 10 h-fasting period or within 30 min after beginning the consumption of a recommended high-fat, high calorie breakfast (150 calories of protein, 250 calories of carbohydrates, 500 to 600 calories of fat; total calories approximately 800–1,000). Tablets were administered with 250 mL of water, to each subject, in each treatment period. Drinking was prohibited for 2 h before and after medication. Apart from this, the amount and time of drinking were not strictly controlled. Subjects had unified, standard meals 4 and 10 h after drug administration. The alternate treatment was conducted after a 14-day washout period.
Serial blood samples (5 mL) for PK assessment were collected from an indwelling catheter or by direct venipuncture prior to the administration (t = 0) and 0.25, 0.5, 1, 1.5, 2, 2.5, 3, 3.5, 4, 5, 6, 8, 12, 24, 36, 48, 72, and 96 h after the administration of ginsenoside CK. We inferred that these sampling times were sufficient for this trial, based on international guidelines (FDA, [2003]; CFDA, [2005]) and our previous results, since the sampling time is longer than at least three terminal half-lives of the drug. Additionally, the mean plasma concentrations of both CK and 20(S)-PPD at 96 h were considerably <1/20 of their Cmax even when the single oral dose at 800 mg (unpublished). Plasma was separated in blood collection tubes by centrifugation (3,000 rpm, 10 min) at 4°C within 1 h after sampling, transferred to labeled storage tubes and stored at −70°C pending workup and analysis.
Descriptive statistics of PK parameters were calculated using established non-compartmental methods, utilizing the WinNonLin version 6.1 software (Pharsight Corporation, USA). The PK parameters determined for each participant included apparent terminal half-life (t1/2), maximum plasma concentration (Cmax), time to Cmax (tmax), area under the plasma concentration-time curve from the time of administration up to the last time point with a measurable concentration post-dose (AUClast), AUC extrapolated to infinity (AUCinf), apparent volume of distribution (V/F), apparent plasma clearance (CL/F) after extravascular administration, mean residence time (MRTlast and MRTinf), and the cumulative excretion rate from urine. The t1/2 was estimated as (ln2)/K, where K represented the slope of the terminal phase of plasma concentration-time profile and was assessed with a weighting factor of 1, using least squares (log-linear regression of at least three data points). The Cmax and tmax were obtained from experimental observations. The values of AUC were calculated using conventional trapezoidal and log-trapezoidal methods and the extrapolated area (Rowland and Tozer, [1995]). CL/F and V/F were calculated as dose/AUCinf and (CL/F)/K, respectively. MRT was calculated as MRT = AUMC/AUC, where AUMC is the area under the first moment curve. The cumulative excretion rate was calculated as the amount of unchanged drug over a time interval in the urine divided by dose, and was expressed as a percentage.
All samples were detected using a LC-MS/MS (API 4000, ABI Company, USA) method, validated at the Institute of Clinical Pharmacology, Central South University (Changsha, China). Concentrations of CK and 20(S)-PPD were measured using a triple quadrupole tandem mass spectrometer in multiple reaction monitoring (MRM) mode, via a positive electrospray ionization source at m/z 621.4→ 160.8 for the CK and m/z 461.5→425.3 for 20(S)-PPD, with a dwell time of 200 ms. […]

[2] = parameters: method as in unpublished; conditions: ref unpublished, cited from earlier work
[3] = both sexes, human, plasma, po, 200 mg, single oral 200 mg CK, FO, all subjects
[4] = female, human, plasma, po, 200 mg, single oral 200 mg CK, FO
[5] = female, human, plasma, po, 200 mg, single oral 200 mg CK, HF
[6] = geometric mean ratio FO vs. HF, n = 24
[7] = human, plasma, po, 200 mg, single oral 200 mg CK, FO, all subjects
[8] = human, plasma, po, 200 mg, single oral 200 mg CK, HF, all subjects
[9] = male, human, plasma, po, 200 mg, single oral 200 mg CK, FO
[10] = male, human, plasma, po, 200 mg, single oral 200 mg CK, HF
[11] = plasma, single oral 200 mg CK, FO, female
[12] = plasma, single oral 200 mg CK, FO, male
[13] = plasma, single oral 200 mg CK, HF, male
[14] = single oral 200 mg CK, FO, all subjects
[15] = single oral 200 mg CK, FO, female
[16] = single oral 200 mg CK, FO, male
[17] = single oral 200 mg CK, HF, all subjects
[18] = single oral 200 mg CK, HF, female
[19] = single oral 200 mg CK, HF, male

CC(C)=CCCC(C)(OC1OC(CO)C(O)C(O)C1O)C1CCC2(C)C1C(O)CC1C3(C)CCC(O)C(C)(C)C3CCC12C [CK, 20-O-beta-D-glucopyranosyl-20(S)-protopanaxadiol]
Increase of Cmax, AUClast and AUCinf after HF meal compared to the FO condition ([1]; 24 subjects): about 2 fold | lgAUClast GMR (90%CI) ([1]; FO vs. HF (Female), n = 12): 0.38 (0.28–0.53) | lgCmax GMR (90%CI) ([1]; FO vs. HF (Female), n = 12): 0.45 (0.33–0.62) | lgAUClast GMR (90%CI) ([1]; FO vs. HF (Male), n = 12): 0.49 (0.42–0.57) | lgCmax GMR (90%CI) ([1]; FO vs. HF (Male), n = 12): 0.55 (0.46–0.65) | lgAUClast GMR (90%CI) ([1]; M vs. F (FO), n = 12): 0.74 (0.54–1.02) | lgCmax GMR (90%CI) ([1]; M vs. F (FO), n = 12): 0.77 (0.57–1.04) | lgAUClast GMR (90%CI) ([1]; M vs. F (HF), n = 12): 0.59 (0.46–0.75) | lgCmax GMR (90%CI) ([1]; M vs. F (HF), n = 12): 0.64 (0.46–0.88) | Subjects having measurable CK concentrations at 0.25 h after administration ([1]; after a meal, 20 of 24 subjects): 83% | half-life ([1]; both sexes, human, plasma, oral, 200 mg, FO and HF, male and female groups, read-out: mean t1/2, range over all treatments): 24 to 28.4 h | AUC(0-inf) [1, 3]: 5880 ng·h/mL | AUC(0-t) [1, 3]: 5750 ng·h/mL | AUC(0-t) ([1]; both sexes, human, plasma, po, 200 mg, single oral 200 mg CK, HF, all subjects): 12600 ng·h/mL | Tmax [1, 4]: 3.8 h | Cmax ([1]; female, human, plasma, po, 200 mg, plasma, single oral 200 mg CK, FO, female, read-out: Cmax): 921 ± 505 ng/mL | half-life ([1]; female, human, plasma, po, 200 mg, plasma, single oral 200 mg CK, FO, female, read-out: t1/2 (converted)): 26.9 ± 5.4 h | Cmax ([1]; female, human, plasma, po, 200 mg, plasma, single oral 200 mg CK, HF, female, read-out: Cmax): 1840 ng/mL | half-life ([1]; female, human, plasma, po, 200 mg, plasma, single oral 200 mg CK, HF, female, read-out: t1/2 (converted)): 25.6 ± 3.5 h | MRT inf [1, 4]: 14.5 ± 2.1 h | MRT last [1, 4]: 11.6 ± 1 h | MRT inf [1, 5]: 14.6 ± 1.5 h | MRT last [1, 5]: 12.2 ± 1 h | AUC(0-inf) [1, 4]: 6900 ng·h/mL | AUC(0-t) [1, 4]: 6750 ng·h/mL | AUC(0-inf) [1, 5]: 15900 ng·h/mL | AUC(0-t) [1, 5]: 15600 ng·h/mL | lgAUClast GMR (90%CI) [1, 6]: 0.43 (0.36–0.51) | lgCmax GMR (90%CI) [1, 6]: 0.50 (0.42–0.59) | Tmax [1, 7]: 3.6 h | half-life ([1]; human, plasma, po, 200 mg, plasma, single oral 200 mg CK, FO (fasting overnight), all subjects, read-out: t1/2 (converted)): 27.7 ± 7.9 h | Cmax ([1]; human, plasma, po, 200 mg, plasma, single oral 200 mg CK, FO, all subjects, read-out: Cmax): 797 ± 406 ng/mL | half-life ([1]; human, plasma, po, 200 mg, plasma, single oral 200 mg CK, HF (high-fat meal), all subjects, read-out: t1/2 (converted)): 24.8 ± 3 h | Cmax ([1]; human, plasma, po, 200 mg, plasma, single oral 200 mg CK, HF, all subjects, read-out: Cmax): 1570 ng/mL | MRT inf [1, 7]: 15.1 ± 4.3 h | MRT last [1, 7]: 11.7 ± 1.2 h | MRT inf [1, 8]: 14.6 ± 1.7 h | MRT last [1, 8]: 12.3 ± 1.2 h | Tmax [1, 9]: 3.4 h | Cmax ([1]; male, human, plasma, po, 200 mg, plasma, single oral 200 mg CK, FO, male, read-out: Cmax): 672 ± 236 ng/mL | half-life ([1]; male, human, plasma, po, 200 mg, plasma, single oral 200 mg CK, FO, male, read-out: t1/2 (converted)): 28.4 ± 10 h | Cmax ([1]; male, human, plasma, po, 200 mg, plasma, single oral 200 mg CK, HF, male, read-out: Cmax): 1300 ng/mL | half-life ([1]; male, human, plasma, po, 200 mg, plasma, single oral 200 mg CK, HF, male, read-out: t1/2 (converted)): 24 ± 2.4 h | MRT inf [1, 9]: 15.7 ± 5.7 h | MRT last [1, 9]: 11.9 ± 1.3 h | MRT inf [1, 10]: 14.5 ± 1.9 h | MRT last [1, 10]: 12.4 ± 1.4 h | AUC(0-inf) [1, 9]: 4860 ng·h/mL | AUC(0-t) [1, 9]: 4750 ng·h/mL | AUC(0-inf) [1, 10]: 9810 ng·h/mL | AUC(0-t) [1, 10]: 9630 ng·h/mL | AUClast [1, 11]: 6,747.5 ± 3,408.7 h·ng·ml^−1 | Cmax [1, 11]: 921.4 ± 505.1 ng/mL | AUCinf [1, 12]: 4,857.1 ± 1,723.2 h·ng·ml^−1 | AUClast [1, 12]: 4,749.9 ± 1,718.1 h·ng·ml^−1 | Cmax [1, 12]: 672.2 ± 235.8 ng/mL | Cmax ([1]; plasma, single oral 200 mg CK, HF, female): 1,838.6 ± 404.4 ng·ml^−1 | AUClast [1, 13]: 9,633.1 ± 3,313.5 h·ng·ml^−1 | Cmax [1, 13]: 1,302.0 ± 632.9 ng·ml^−1 | CL/F [1, 14]: 43.4 ± 24.2 L/h | V/F [1, 14]: 1,875 ± 1,899 L | CL/F [1, 15]: 38.0 ± 21.8 L/h | V/F [1, 15]: 1,427 ± 699 L | CL/F [1, 16]: 48.8 ± 26.3 L/h | V/F [1, 16]: 2,323 ± 2,572 L | CL/F [1, 17]: 18.2 ± 9.8 L/h | V/F [1, 17]: 652 ± 381 L | CL/F [1, 18]: 12.8 ± 1.8 L/h | V/F [1, 18]: 477 ± 109 L | CL/F [1, 19]: 23.6 ± 11.6 L/h | V/F [1, 19]: 828 ± 475 L | Effects on vital signs, laboratory tests or 12-lead ECG ([2]; dose range 100–400 mg): no significant effects | Dose range over which exposure increased linearly ([2]; previous clinical trial): 100 to 400 mg | Mean plasma concentration at 96 h as fraction of Cmax ([2]; single oral dose at 800 mg): < 1/20
